Results taken from publication PMC6409032, “Antileishmanial Evaluation of the Leaf Latex of Aloe macrocarpa, Aloin A/B, and Its Semisynthetic Derivatives against Two Leishmania Species” (Evidence-based Complementary and Alternative Medicine : eCAM, 2019).
Like-named read-outs stand apart in the source and are kept apart here.

What was measured:
[1] = system: Leishmania aethiopica promastigotes; experiment: In vitro antipromastigote assay (resazurin fluorescence); assay type: cell-based
Description: (§1) In vitro antileishmanial activity tests were carried out against the promastigote stage and axenically cultured amastigotes of L. aethiopica and L. donovani. The two isolates were grown in tissue culture flasks containing RPMI 1640 medium supplemented with 10% heat-inactivated fetal calf serum, 100 IU penicillin/mL, and 100 μg/mL streptomycin solution at 22°C for L. aethiopica and 24°C for L. donovani. Axenically cultured amastigotes were obtained from the late stationary phase promastigotes (3 × 10^6 cells/ml). The cells were centrifuged and then resuspended in medium 199 with Hank's salts supplemented with 20% FBS, 2 mM L-glutamine, 50 IU/mL penicillin, and 50 μg/mL streptomycin. The pH was adjusted to 5.5 using 1 N HCl. Following incubation of cells at 31°C for L. aethiopica and 37°C for L. donovani at 5% CO2, amastigote-like rounded morphology together with loss of flagella and cell clumping started appearing within 24 h. The parasites were kept for a week as some motile parasites with intermediate forms and short flagella were detected. The human monocytic leukemia cell line THP-1 cells were incubated in RPMI 1640 medium plus 10% hi-FCS and 20 ng/mL phorbol 12-myristate 13-acetate (PMA; Sigma) at 37°C and 5% CO2 for 72 h. A cell-free medium was used to grow parasites in vitro and to set up the test system for determination of the IC50 values of the test substances.
(§2) To a separate 96-well microtiter plate containing 100 μL of complete culture medium, each of the test substances was added to triplicate wells to achieve a final concentration of 100 μg/mL. Each one hundred microliter suspension of the parasites (3.5 × 10^6 promastigotes or axenically cultured amastigotes /mL of L. aethiopica or L. donovani) obtained from the previous culture was then added to each well, and contents of each plates were maintained for 72 h, at room temperature for promastigotes stages of both strains, at 31°C and 37°C for axenically cultured amastigotes of L. aethiopica and L. donovani, respectively. After 68 h of incubation, 20 μL (10% of the total volume of each well) resazurin (0.125 mg/mL) was added, covered with aluminum foil, and left at temperature mentioned above. Antileishmanial effect of the test substances was studied on the basis of fluorescence characteristic of resazurin added to drug-treated cultures.
(§3) Antipromastigote effect was evaluated against clinical isolates of L. aethiopica and L. donovani strains, as per the method described by Abeje et al..
(§4) Antileishmanial activity (IC50) was expressed as mean ± SD of triplicate measurements. IC50 values were evaluated from sigmoidal dose-response curves of percent inhibition using the computer software GraphPad Prism 8 (GraphPad Software, Inc., CA, USA), and values expressed as mean ± SD of triplicate experiments.

[2] = system: Leishmania donovani promastigotes; experiment: as above; assay type: cell-based; settings: L. donovani promastigotes, 72 h
Description: as §1, §2, §3, §4

[3] = system: axenically cultured amastigotes of Leishmania aethiopica; experiment: In vitro assay on axenically cultured amastigotes (resazurin fluorescence); assay type: cell-based; settings: for Selectivity index: LC50 on THP-1 cells / IC50 on L. aethiopica amastigotes; for IC50: Leishmania aethiopica, L. aethiopica axenic amastigotes, 72 h
Description: as §1, with “The human monocytic leukemia cell line THP-1 cells were incubated in RPMI 1640 medium plus 10% hi-FCS and 20 ng/mL phorbol 12-myristate 13-acetate (PMA; Sigma) at 37°C and 5% CO2 for 72 h.” left out, “substances. […] Each one hundred microliter suspension of the parasites (3.5 × 10^6 promastigotes or axenically cultured amastigotes /mL of L. aethiopica or L. donovani) obtained from the previous culture was then added to each well, and contents of each plates were maintained for 72 h, at room temperature for promastigotes stages of both strains, at 31°C and 37°C for axenically cultured amastigotes of L. aethiopica and L. donovani, respectively. After 68 h of incubation, 20 μL (10% of the total volume of each well) resazurin (0.125 mg/mL) was added, covered with aluminum foil, and left at temperature mentioned above. […] Antileishmanial activity (IC50) was expressed as mean ± SD of triplicate measurements. IC50 values were evaluated from sigmoidal dose-response curves of percent inhibition using the computer software GraphPad Prism 8 (GraphPad Software, Inc., CA, USA), and values expressed as mean ± SD of triplicate experiments.” for “substances.”

[4] = system: axenically cultured amastigotes of Leishmania donovani; experiment: as above; assay type: cell-based; settings: for Selectivity index: LC50 on THP-1 cells / IC50 on L. donovani amastigotes; for IC50: Leishmania donovani, L. donovani axenic amastigotes, 72 h
Description: as §1, with “The human monocytic leukemia cell line THP-1 cells were incubated in RPMI 1640 medium plus 10% hi-FCS and 20 ng/mL phorbol 12-myristate 13-acetate (PMA; Sigma) at 37°C and 5% CO2 for 72 h.” left out, “substances. […] Each one hundred microliter suspension of the parasites (3.5 × 10^6 promastigotes or axenically cultured amastigotes /mL of L. aethiopica or L. donovani) obtained from the previous culture was then added to each well, and contents of each plates were maintained for 72 h, at room temperature for promastigotes stages of both strains, at 31°C and 37°C for axenically cultured amastigotes of L. aethiopica and L. donovani, respectively. After 68 h of incubation, 20 μL (10% of the total volume of each well) resazurin (0.125 mg/mL) was added, covered with aluminum foil, and left at temperature mentioned above. […] Antileishmanial activity (IC50) was expressed as mean ± SD of triplicate measurements. IC50 values were evaluated from sigmoidal dose-response curves of percent inhibition using the computer software GraphPad Prism 8 (GraphPad Software, Inc., CA, USA), and values expressed as mean ± SD of triplicate experiments.” for “substances.”

[5] = Cytotoxicity study in THP-1 monocytes (Alamar Blue); assay type: cell-based; settings: human
Description: In vitro antileishmanial activity tests were carried out against the promastigote stage and axenically cultured amastigotes of L. aethiopica and L. donovani. […] Axenically cultured amastigotes were obtained from the late stationary phase promastigotes (3 × 10^6 cells/ml). […] The pH was adjusted to 5.5 using 1 N HCl. Following incubation of cells at 31°C for L. aethiopica and 37°C for L. donovani at 5% CO2, amastigote-like rounded morphology together with loss of flagella and cell clumping started appearing within 24 h. The parasites were kept for a week as some motile parasites with intermediate forms and short flagella were detected. […] A cell-free medium was used to grow parasites in vitro and to set up the test system for determination of the IC50 values of the test substances.
THP-1 monocytes were plated onto 96-well plates at a density of 4 × 10^4 cells per well (in 200 μL volume) in the presence or absence of test substances and plates incubated at 37°C, 5% CO2 for 72 h. After adding Alamar Blue™ during the last 3 h of incubation, cell viability was measured fluorometrically as described above.

[6] = Acute toxicity study (OECD limit test); settings: mouse, in vivo; Swiss albino mice, limit test dose 2000 mg/kg, OECD guideline
Description: Acute toxicity study was carried out as described earlier using the limit test dose of 2000 mg/kg according to OECD guideline for testing of chemicals on Swiss albino mice.

[7] = system: L. major amastigotes; set-up: method as in PMID 26151018; settings: in vitro; cited from earlier work
[8] = L. aethiopica promastigotes, 72 h, mean ± SD, n = 3, read-out: Antipromastigote activity IC50
[9] = L. aethiopica promastigotes, 72 h, read-out: Antipromastigote activity IC50 (micromolar, in parenthesis) (converted)
[10] = mean ± SD, n = 3, read-out: Antipromastigote activity IC50
[11] = read-out: Antipromastigote activity IC50 (micromolar, in parenthesis) (converted)
[12] = 31°C, mean ± SD, n = 3, read-out: Antiaxenically cultured amastigotes activity IC50
[13] = read-out: Antiaxenically cultured amastigotes activity IC50 (micromolar, in parenthesis) (converted)
[14] = 37°C, mean ± SD, n = 3, read-out: Antiaxenically cultured amastigotes activity IC50
[15] = mean ± SD, n = 3, read-out: Cytotoxic effect in THP-1 LC50
[16] = read-out: Cytotoxic effect in THP-1 LC50 (micromolar, in parenthesis) (converted)

| SMILES | IC50 [1, 8] | IC50 [1, 9] | IC50 [2, 10] | IC50 [2, 11] | Selectivity index [3] | IC50 [3, 12] | IC50 [3, 13] | Selectivity index [4] | IC50 [4, 14] | IC50 [4, 13] | CC50 at 72 h [5, 15] | CC50 at 72 h [5, 16] | LD50 [6] | IC50 ([1]; promastigotes and axenic amastigotes of L. aethiopica and L. donovani, read-out: IC50 (range over both stages and both species)) | inhibitory concentrations against L. major amastigotes [7] |
| --- | --- | --- | --- | --- | --- | --- | --- | --- | --- | --- | --- | --- | --- | --- | --- |
| O=C1c2c(O)cccc2C(C2OC(CO)C(O)C(O)C2O)c2cc(CO)cc(O)c21 (centres unmarked) [Aloin A/B, aloin A/B] | 3.94 ± 0.33 µg/mL | 9.4 µM | 5.06 ± 0.22 µg/mL | 12.1 µM | 55.11 | 2.8 ± 1.02 µg/mL | 6.7 µM | 52.84 | 2.92 ± 0.15 µg/mL | 7 µM | 154.3 ± 0.22 µg/mL | 369 µM | > 2000 mg/kg | – | – |
| O=C(O)c1cc(O)c2c(c1)C(=O)c1cccc(O)c1C2=O [Rhein, rhein] | 1.91 ± 0.61 µg/mL | 6.7 µM | 2.07 ± 0.11 µg/mL | 7.3 µM | 171.98 | 1.01 ± 0.22 µg/mL | 3.6 µM | 148.46 | 1.17 ± 0.42 µg/mL | 4.1 µM | 173.7 ± 0.11 µg/mL | 612 µM | > 2000 mg/kg | – | – |
| C[C@@H]1[C@H](O)[C@@H](C)/C=C/C=C/C=C/C=C/C=C/C=C/C=C/[C@H](O[C@@H]2O[C@H](C)[C@@H](O)[C@H](N)[C@@H]2O)C[C@@H]2O[C@](O)(C[C@@H](O)C[C@@H](O)[C@H](O)CC[C@@H](O)C[C@@H](O)CC(=O)O[C@H]1C)C[C@H](O)[C@H]2C(=O)O [Amphotericin B, amphotericin B, reference compound] | 2.43 ± 0.22 µg/mL | 2.6 µM | 2.45 ± 0.21 µg/mL | 2.7 µM | 8.31 | 1.23 ± 0.41 µg/mL | 1.3 µM | 6.60 | 1.55 ± 0.51 µg/mL | 1.7 µM | 10.2 ± 0.32 µg/mL | 11.1 µM | – | 1.3 to 2.7 µM | – |
| O=C1c2cccc(O)c2C(=O)c2c(O)cc(CO)cc21 [Aloe-emodin, aloe-emodin] | 2.81 ± 0.43 µg/mL | 10.4 µM | 2.85 ± 0.5 µg/mL | 10.6 µM | 65.22 | 2.23 ± 0.33 µg/mL | 8.3 µM | 52.89 | 2.75 ± 0.03 µg/mL | 10.2 µM | 145.4 ± 0.27 µg/mL | 539 µM | > 2000 mg/kg | – | 40 µg/mL |
